This is an account of results in patent publication US11453671B2, “Pyrazolopyrimidine inhibitors of JAK kinases and uses thereof” (Genentech, Inc., priority 2020, dated 2022).

pIC50: −log10 of the molar value. Read-outs that look alike come from different tables or passages of the source. Some results are limits rather than exact numbers.

In general, pIC50 refers to −log10 of the IC50, conventionally taken in molar units. One may read the EC50 as the concentration needed to bring the measured effect to its halfway point.

Data set [1] concerns JAK1: IL-13-stimulated STAT6 phosphorylation in BEAS-2B cells. The experiment in a line: P-STAT6 BEAS-2B+IL-13 Cell Assay. The data set is classed as cell-based, human. Conditions: IL-13 stimulation, read-out: Cellular JAK1 PSTAT6 BEAS2B + IL13 IC50. An outline of the steps: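 BEAS-2B cells in BEGM preincubated 1 h at 37 °C with 10-point, 1:2 compound dilutions, then stimulated 15 min with IL-13 (250 ng/mL stock). Lysate pSTAT6 (Tyr641) captured on total-STAT6 antibody and read by MSD electrochemiluminescence; IC50 from four-parameter logistic fit.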

The nature of data set [2]: Cell cytotoxicity assay Jurkat (CellTiter-Glo, 72 hours). The data set is classed as cell-based. Conditions: human, Jurkat clone E6-1 cells, read-out: Cytotox Jurkat EC50. The source says:
Cytotoxicity assays. Hepatocyte toxicity, general cytotoxicity or cytotoxicity of unknown mechanism is an undesirable feature for a potential drug, including inhaled drugs. It may be of benefit for an inhaled JAK1 or JAK1/JAK2 inhibitor to have low intrinsic cytotoxicity against various cell types. Typical cell types used to assess cytotoxicity include both primary cells such as human hepatocytes, and proliferating established cell lines such as Jurkat and HEK-293. […] Methods of measuring cytotoxicity are known in the art. In some embodiments, compounds described herein were tested as follows:
(a) Jurkat and HEK293T cells were maintained at a sub confluent density in T175 flasks. Cells were plated at 450 cells/45 μl medium in Greiner 384 well black/clear tissue culture treated plates. (Greiner Catalog #781091). After dispensing cells, plates were equilibrated at room temperature for 30 minutes. After 30 minutes at room temperature, cells were incubated overnight at 37° C. in a CO2 and humidity controlled incubator. The following day, cells were treated with compounds diluted in 100% DMSO (final DMSO concentration on cells=0.5%) with a 10 point dose-response curve with a top concentration of 50 μM. Cells and compounds were then incubated for 72 hours overnight at 37° C. in a CO2 and humidity controlled incubator. After 72 hours of incubation, viability was measured using CellTiterGlo® (Promega Catalog #G7572) to all wells. After incubation at room temperature for 20 minutes, plates were read on EnVision™ (Perkin Elmer Life Sciences) using luminescence mode;
(§1) A549 (ATCC® CCL-185™), Jurkat clone E6-1 (ATCC® TIB-152™) and HEK-293T (ATCC® CRL-1573™) cells maintained at a sub-confluent density in T175 flasks were used. Cells in exponential growth phase were plated (450 cells in 45 μL of medium) in Greiner 384-well black/clear tissue culture treated plates (Greiner Catalog No. 781091). After dispensing cells, plates were allowed to equilibrate at room temperature for 30 minutes, after which time the cell plates were placed overnight in a 37° C. CO2 and humidity-controlled incubator. The following day, cells were treated with test agent diluted in 100% DMSO (0.5% final DMSO concentration on cells) with a 10-point titration and a top concentration of 50 μM. Cells and compounds were then incubated for 72 hours in a 37° C. CO2 and humidity-controlled incubator, after which time cell viability was measured by adding CellTiter-Glo® (Promega G7572) reagent to all wells. Plates were incubated at room temperature for 20 minutes and then the well luminescence was read on an EnVision plate reader (Perkin Elmer Life Sciences).
A general note: In ATP-based viability assays light output follows the ATP content of the culture.

Data set [3] in a line: Cell cytotoxicity assay A549 (CellTiter-Glo, 72 hours). It is filed as cell-based. Particulars: human, A549 cells, read-out: Cytotox A549 EC50. As to the method: as §1
Where [4] appears, read: Table 3, 72 hours, top concentration of 50 μM.
Setting [5] is: Table 4, methyl-desmethyl analog pairs.

In the case of `CC(CO)S(=O)(=O)c1ccc(OC(F)F)c(-c2nn(C)cc2NC(=O)c2cnn3cccnc23)c1` (single isomer, unassigned) [Example 23, N-[3-[2-(difluoromethoxy)-5-(2-hydroxy-1-methyl-ethyl)sulfonyl-phenyl]-1-methyl-pyrazol-4-yl]pyrazolo[1,5-a]pyrimidine-3-carboxamide], in data set [1], the pIC50 was 7.85. Also, the EC50 at 72 h stood at 24 µM in data set [2] (setting [4]) and 28 µM in data set [3] (setting [4]).

For the molecule `CC(CO)S(=O)(=O)c1ccc(OC(F)F)c(-c2nn(C)cc2NC(=O)c2cnn3cccnc23)c1` (single isomer, unassigned) [Example 24, N-[3-[2-(difluoromethoxy)-5-(2-hydroxy-1-methyl-ethyl)sulfonyl-phenyl]-1-methyl-pyrazol-4-yl]pyrazolo[1,5-a]pyrimidine-3-carboxamide], the pIC50 in data set [1] is 7.52.

Take `Cn1cc(NC(=O)c2cnn3cccnc23)c(-c2cc(S(=O)(=O)C3CCCNC3)ccc2OC(F)F)n1` (single isomer, unassigned) [Example 37, N-[3-[2-(difluoromethoxy)-5-(3-piperidylsulfonyl)phenyl]-1-methyl-pyrazol-4-yl]pyrazolo[1,5-a]pyrimidine-3-carboxamide]: in data set [1] (Homo sapiens, BEAS-2B), the pIC50 was 7.34. Also, the EC50 at 72 h in data set [2] (setting [4]) and in data set [3] (setting [4]) was at least 50 µM in each case.

With `C[C@H](O)CS(=O)(=O)c1ccc(OC(F)F)c(-c2nn(C)cc2NC(=O)c2cnn3cccnc23)c1` (stereo in doubt) [Example 15, N-[3-[2-(difluoromethoxy)-5-[rac-(2S)-2-hydroxypropyl]sulfonyl-phenyl]-1-methyl-pyrazol-4-yl]pyrazolo[1,5-a]pyrimidine-3-carboxamide], the pIC50 in data set [1] (Homo sapiens, BEAS-2B) was 7.70. Also, the EC50 at 72 h turned out to be 35 µM in data set [2] (setting [4]) and 25 µM in data set [3] (setting [4]).

In the case of `C[C@@H](O)CS(=O)(=O)c1ccc(OC(F)F)c(-c2nn(C)cc2NC(=O)c2cnn3cccnc23)c1` (stereo in doubt) [Example 25, N-[3-[2-(difluoromethoxy)-5-[rac-(2R)-2-hydroxypropyl]sulfonyl-phenyl]-1-methyl-pyrazol-4-yl]pyrazolo[1,5-a]pyrimidine-3-carboxamide], the pIC50 in data set [1] (Homo sapiens, BEAS-2B) is 7.70. Moreover, the EC50 at 72 h in data set [2] (setting [4]) and in data set [3] (setting [4]) was at least 50 µM throughout.

On to `CN1CCCC1CCn1cc(S(=O)(=O)c2ccc(OC(F)F)c(-c3nn(C)cc3NC(=O)c3cnn4cccnc34)c2)cn1` (stereo in doubt) [Example 56, N-[3-[2-(difluoromethoxy)-5-[1-[2-[(2R)-1-methylpyrrolidin-2-yl]ethyl]pyrazol-4-yl]sulfonyl-phenyl]-1-methyl-pyrazol-4-yl]pyrazolo[1,5-a]pyrimidine-3-carboxamide], for which, in data set [1] (Homo sapiens, BEAS-2B), the pIC50 was 7.25. For the same molecule, the EC50 at 72 h is 24 µM in data set [2] (setting [4]) and at least 50 µM in data set [3] (setting [4]).

For the molecule `Cn1cc(NC(=O)c2cnn3cccnc23)c(-c2cc(S(=O)(=O)C3CCC3)ccc2OC(F)F)n1` [Example 2, N-[3-[5-cyclobutylsulfonyl-2-(difluoromethoxy)phenyl]-1-methyl-pyrazol-4-yl]pyrazolo[1,5-a]pyrimidine-3-carboxamide], in data set [1] (Homo sapiens, BEAS-2B), the pIC50 was 7.82. For the same molecule, the EC50 at 72 h in data set [2] (setting [4]) turned out to be 38.5 µM; in data set [3] (setting [4]), 25.5 µM.

Take `Cn1cc(NC(=O)c2cnn3cccnc23)c(-c2cc(S(=O)(=O)CCO)ccc2OC(F)F)n1` [Example 5, N-[3-[2-(difluoromethoxy)-5-(2-hydroxyethylsulfonyl)phenyl]-1-methyl-pyrazol-4-yl]pyrazolo[1,5-a]pyrimidine-3-carboxamide]: the pIC50 in data set [1] (Homo sapiens, BEAS-2B) is 7.46. The EC50 at 72 h in data set [2] (setting [4]) amounted to 23 µM; in data set [3] (setting [4]), 45.5 µM.

Consider `CN(C)CCS(=O)(=O)c1ccc(OC(F)F)c(-c2nn(C)cc2NC(=O)c2cnn3cccnc23)c1` [Example 7, N-[3-[2-(difluoromethoxy)-5-[2-(dimethylamino)ethylsulfonyl]phenyl]-1-methyl-pyrazol-4-yl]pyrazolo[1,5-a]pyrimidine-3-carboxamide], for which the pIC50 in data set [1] (Homo sapiens, BEAS-2B) was 7.49. Also, the values for the EC50 at 72 h in data set [2] (setting [4]) and in data set [3] (setting [4]) were 2.1 µM and 4.1 µM, respectively.

Regarding `COc1cccc(S(=O)(=O)c2ccc(OC(F)F)c(-c3nn(C)cc3NC(=O)c3cnn4cccnc34)c2)c1` [Example 12, N-[3-[2-(difluoromethoxy)-5-(3-methoxyphenyl)sulfonyl-phenyl]-1-methyl-pyrazol-4-yl]pyrazolo[1,5-a]pyrimidine-3-carboxamide], in data set [1] (Homo sapiens, BEAS-2B), the pIC50 was 7.74. Further, the EC50 at 72 h in data set [2] (setting [4]) and in data set [3] (setting [4]) was at least 50 µM throughout.

In the case of `Cn1cc(NC(=O)c2cnn3cccnc23)c(-c2cc(S(=O)(=O)C3COC3)ccc2OC(F)F)n1` [Example 13, N-[3-[2-(difluoromethoxy)-5-(oxetan-3-ylsulfonyl)phenyl]-1-methyl-pyrazol-4-yl]pyrazolo[1,5-a]pyrimidine-3-carboxamide], the negative logarithm of the IC50 (pIC50) in data set [1] (Homo sapiens, BEAS-2B) was 7.48. In addition, the figures for the EC50 at 72 h in data set [2] (setting [4]) and in data set [3] (setting [4]) were at least 50 µM and 44 µM, respectively.

For the molecule `COCCS(=O)(=O)c1ccc(OC(F)F)c(-c2nn(C)cc2NC(=O)c2cnn3cccnc23)c1` [Example 14, N-[3-[2-(difluoromethoxy)-5-(2-methoxyethylsulfonyl)phenyl]-1-methyl-pyrazol-4-yl]pyrazolo[1,5-a]pyrimidine-3-carboxamide], the pIC50 in data set [1] (Homo sapiens, BEAS-2B) is 7.64. Also, the EC50 at 72 h in data set [2] (setting [4]) and in data set [3] (setting [4]) was at least 50 µM in each case.

Regarding `Cn1cc(NC(=O)c2cnn3cccnc23)c(-c2cc(S(=O)(=O)c3ccncc3)ccc2OC(F)F)n1` [Example 16, N-[3-[2-(difluoromethoxy)-5-(4-pyridylsulfonyl)phenyl]-1-methyl-pyrazol-4-yl]pyrazolo[1,5-a]pyrimidine-3-carboxamide], the pIC50 in data set [1] (Homo sapiens, BEAS-2B) is 7.82. For the same molecule, the results for the EC50 at 72 h in data set [2] (setting [4]) and in data set [3] (setting [4]) were 6.2 µM and 7.4 µM, respectively.

`Cn1cc(NC(=O)c2cnn3cccnc23)c(-c2cc(S(C)(=O)=O)ccc2OC(F)F)n1` [Example 17, N-[3-[2-(difluoromethoxy)-5-methylsulfonyl-phenyl]-1-methyl-pyrazol-4-yl]pyrazolo[1,5-a]pyrimidine-3-carboxamide]: the pIC50 in data set [1] (Homo sapiens, BEAS-2B) was 7.85. Also, the EC50 at 72 h in data set [2] (setting [4]) was determined as 11 µM; in data set [2] (setting [5]) it was 11 µM; in data set [3] (setting [4]) it was 8.7 µM; in data set [3] (setting [5]), 8.7 µM.

Take `Cn1cc(NC(=O)c2cnn3cccnc23)c(-c2cc(S(=O)(=O)N3CCC3)ccc2OC(F)F)n1` [Example 21, N-[3-[5-(azetidin-1-ylsulfonyl)-2-(difluoromethoxy)phenyl]-1-methyl-pyrazol-4-yl]pyrazolo[1,5-a]pyrimidine-3-carboxamide]: the pIC50 in data set [1] (Homo sapiens, BEAS-2B) was 7.85. Further, the results for the concentration giving a half-maximal response (EC50) at 72 h in data set [2] (setting [4]) and in data set [3] (setting [4]) were 11 µM and 7.5 µM, respectively.

Regarding `Cn1cc(NC(=O)c2cnn3cccnc23)c(-c2cc(S(=O)(=O)C3CC3)ccc2OC(F)F)n1` [Example 22, N-[3-[5-cyclopropylsulfonyl-2-(difluoromethoxy)phenyl]-1-methyl-pyrazol-4-yl]pyrazolo[1,5-a]pyrimidine-3-carboxamide], in data set [1] (Homo sapiens, BEAS-2B), the pIC50 was 7.64. In addition, the EC50 at 72 h in data set [2] (setting [4]) and in data set [3] (setting [4]) was at least 50 µM throughout.

On to `CNS(=O)(=O)c1ccc(OC(F)F)c(-c2nn(C)cc2NC(=O)c2cnn3cccnc23)c1` [Example 26, N-[3-[2-(difluoromethoxy)-5-(methylsulfamoyl)phenyl]-1-methyl-pyrazol-4-yl]pyrazolo[1,5-a]pyrimidine-3-carboxamide], for which the pIC50 in data set [1] (Homo sapiens, BEAS-2B) was 7.96. Also, the values for the EC50 at 72 h in data set [2] (setting [4]) and in data set [3] (setting [4]) were 12 µM and 11 µM, respectively.
